The results in this text go back to patent US20260176320A1, “MODULATORS OF G-PROTEIN COUPLED RECEPTORS” (priority 2018, published 2026).

Where two headings read alike, the source gives them in different places.

For orientation: Emax means the maximal effect, on the per cent scale that the assay sets.

The target of experiment [1] is T1, GLP-1R (Homo sapiens, UniProt P43220). In words: HitHunter cAMP assay (GLP-1R). The format is cell-based. As to conditions: cAMP; for Emax: read-out: (Emax) GLP-1R. The procedure, abridged:
(§1)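 Suspension cells (10,000/well) in HBSS with 10 mM HEPES, 625 μM IBMX, 0.2% BSA exposed to 22-point 2-fold agonist series in duplicate for 30 min at room temperature. cAMP measured by antibody immunocompetition with overnight development, luminescence read-out.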

The next experiment concerns the target T2, GIP-R (Homo sapiens, UniProt P48546).
T2 sequence (P48546 22-466): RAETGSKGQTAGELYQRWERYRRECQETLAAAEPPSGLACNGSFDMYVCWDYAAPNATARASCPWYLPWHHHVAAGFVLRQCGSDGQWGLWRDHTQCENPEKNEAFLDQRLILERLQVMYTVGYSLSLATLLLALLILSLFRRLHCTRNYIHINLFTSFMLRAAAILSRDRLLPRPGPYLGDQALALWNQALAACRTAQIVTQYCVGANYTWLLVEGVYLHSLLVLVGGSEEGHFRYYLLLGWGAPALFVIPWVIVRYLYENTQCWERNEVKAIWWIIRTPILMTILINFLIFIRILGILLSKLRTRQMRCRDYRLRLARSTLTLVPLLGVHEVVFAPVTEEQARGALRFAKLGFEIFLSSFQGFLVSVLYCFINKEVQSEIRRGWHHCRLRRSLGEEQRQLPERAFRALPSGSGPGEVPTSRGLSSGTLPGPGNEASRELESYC
The experiment is described as follows: HitHunter cAMP assay (GIP-R). The conditions noted are these: cAMP; for Emax: read-out: (Emax) GIP-R. The format is cell-based. Put shortly:
as §1

The next experiment has as its system mice. In words: Glucose tolerance test (GTT). Format: in vivo, mouse. As to conditions: 24 h GTT, s.c., percent of vehicle. Put shortly:
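Compounds diluted in PBS from 1 mM DMSO stocks and given subcutaneously 15 min (5-6 h fast), 4 h (16 h overnight fast), 16 h or 24 h before intraperitoneal glucose (2 g/kg). Tail blood glucose read at 10–120 min post-glucose, at least 6 mice per time-point. Glucose AUC over time determined.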

For experiment [2], the target named is T1, GLP-1R. The experiment is described as follows: PathHunter β-arrestin assay. Format: cell-based. Put shortly:
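Cells (5,000/well) plated overnight, then exposed to a 22-point 2-fold agonist dilution series in medium with 0.2% BSA for 90 min at 37 °C, 5% CO2. PathHunter detection reagent added; after 3 h at room temperature in the dark, luminescence read.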

[3] abbreviates: Table 3, read-out: EC50 GLP-1R/nM.
The mark [4] stands for this setting: Table 3A, read-out: EC50 GLP-1R/nM.
Setting [5] is: Table 3, read-out: EC50 GIP-R/nM.
Setting [6] is: Table 3A, read-out: EC50 GIP-R/nM.
[7] abbreviates: PathHunter β-arrestin assay, read-out: β-arrestin activity EC50.

T1 sequence (P43220 24-463): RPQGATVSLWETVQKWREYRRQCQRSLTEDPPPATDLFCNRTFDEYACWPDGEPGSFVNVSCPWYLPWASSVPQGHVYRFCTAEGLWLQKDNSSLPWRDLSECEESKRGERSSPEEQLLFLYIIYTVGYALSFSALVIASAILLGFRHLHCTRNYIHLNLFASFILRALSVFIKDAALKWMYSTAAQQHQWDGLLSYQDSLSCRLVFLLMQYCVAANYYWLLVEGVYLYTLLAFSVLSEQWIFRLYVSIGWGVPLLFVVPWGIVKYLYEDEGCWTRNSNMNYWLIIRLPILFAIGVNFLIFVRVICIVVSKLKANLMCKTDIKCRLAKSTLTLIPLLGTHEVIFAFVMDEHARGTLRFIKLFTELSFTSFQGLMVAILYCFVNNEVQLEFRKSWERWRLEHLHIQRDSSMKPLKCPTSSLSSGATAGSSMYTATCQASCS

`CCCCCCCCCCCCCCCC(=O)N[C@@H](CCC(=O)NCCCC[C@H](NC(=O)[C@H](CO)NC(=O)[C@@H]1CCCN1C(=O)[C@@H]1CCCN1C(=O)[C@@H]1CCCN1C(=O)[C@H](C)NC(=O)CNC(=O)[C@H](CO)NC(=O)[C@H](CO)NC(=O)[C@@H]1CCCN1C(=O)CNC(=O)CNC(=O)[C@H](C)NC(=O)[C@H](CC(C)C)NC(=O)[C@H](CC(C)C)NC(=O)[C@H](Cc1c[nH]c2ccccc12)NC(=O)[C@H](CC(N)=O)NC(=O)[C@@H](NC(=O)[C@H](Cc1ccccc1)NC(=O)[C@H](CCC(=O)O)NC(=O)C(C)(C)NC(=O)[C@H](C)NC(=O)[C@H](C)NC(=O)[C@H](CCC(N)=O)NC(=O)[C@H](CCCCN)NC(=O)[C@H](CC(=O)O)NC(=O)[C@H](CC(C)C)NC(=O)[C@H](Cc1ccc(O)cc1)NC(=O)[C@@H](NC(=O)[C@H](CO)NC(=O)[C@H](Cc1ccc(O)cc1)NC(=O)[C@H](CC(=O)O)NC(=O)[C@H](CO)NC(=O)[C@@H](NC(=O)[C@H](Cc1ccccc1)NC(=O)[C@@H](NC(=O)CNC(=O)[C@H](CCC(=O)O)NC(=O)CSCC(=O)NCCN1C(=O)CCC1=O)[C@@H](C)O)[C@@H](C)O)[C@@H](C)CC)C(C)C)C(N)=O)C(=O)O` [Compound 114]: the Emax was in the range of 94 to 103% at GLP-1R [1] (Table 3), 94 to 103% at GLP-1R [1] (Table 3A), 42 to 63% on GIP-R (Table 3) and 42 to 63% at GIP-R (Table 3A). For the same molecule, the EC50 at GLP-1R [1] (setting [3]) is 0.1 to 10 nM; on GLP-1R [1] (setting [4]) it was 0.1 to 10 nM; at GIP-R (setting [5]) it was 1 to 10 nM; on GIP-R (setting [6]), 1 to 10 nM; at GLP-1R [2] (setting [7]), above 1000 nM. Besides, the AUC score in the experiment with mice (dose range 2-5 nmol/kg) is 3 (AUC score 3 = 51-75%).

Regarding `CCCCCCCCCCCCCCCC(=O)N[C@@H](CCC(=O)NCCCC[C@H](NC(=O)[C@H](CO)NC(=O)[C@@H]1CCCN1C(=O)[C@@H]1CCCN1C(=O)[C@@H]1CCCN1C(=O)[C@H](C)NC(=O)CNC(=O)[C@H](CO)NC(=O)[C@H](CO)NC(=O)[C@@H]1CCCN1C(=O)CNC(=O)CNC(=O)[C@H](C)NC(=O)[C@H](CC(C)C)NC(=O)[C@H](CC(C)C)NC(=O)[C@H](Cc1c[nH]c2ccccc12)NC(=O)[C@H](CC(N)=O)NC(=O)[C@@H](NC(=O)[C@H](Cc1ccccc1)NC(=O)[C@H](CCC(=O)O)NC(=O)C(C)(C)NC(=O)[C@H](C)NC(=O)[C@H](C)NC(=O)[C@H](CCC(N)=O)NC(=O)[C@H](CCCCN)NC(=O)[C@H](CC(=O)O)NC(=O)[C@H](CC(C)C)NC(=O)[C@H](Cc1ccc(O)cc1)NC(=O)[C@@H](NC(=O)[C@H](CO)NC(=O)[C@H](Cc1ccc(O)cc1)NC(=O)[C@H](CC(=O)O)NC(=O)[C@H](CO)NC(=O)[C@@H](NC(=O)[C@H](Cc1ccccc1)NC(=O)[C@@H](NC(=O)CNC(=O)[C@H](CCC(=O)O)NC(=O)CSCC(=O)NCCN1C(=O)CCC(C)(C)C1=O)[C@@H](C)O)[C@@H](C)O)[C@@H](C)CC)C(C)C)C(N)=O)C(=O)O` [Compound 81], the EC50 at GLP-1R [1] (EC50 GLP-1R/nM, Table 3) is 0.1 to 1 nM; at GLP-1R [1] (EC50 GLP-1R/nM, Table 3A), 0.1 to 1 nM; at GIP-R (EC50 GIP-R/nM, Table 3), 0.1 to 1 nM; at GIP-R (EC50 GIP-R/nM, Table 3A), 0.1 to 1 nM; at GLP-1R [2], above 1000 nM. For the same molecule, the Emax on GLP-1R [1] (Table 3) was 96%; at GLP-1R [1] (Table 3A) it was 96%; at GIP-R (Table 3), 89%; on GIP-R (Table 3A), 89%. Also, the AUC score in the experiment on mice (dose range 2-5 nmol/kg) was 3 (AUC score 3 = 51-75%).

Regarding `CCCCCCCCCCCCCCCC(=O)N[C@@H](CCC(=O)NCCCC[C@H](NC(=O)[C@H](CO)NC(=O)[C@@H]1CCCN1C(=O)[C@@H]1CCCN1C(=O)[C@@H]1CCCN1C(=O)[C@H](C)NC(=O)CNC(=O)[C@H](CO)NC(=O)[C@H](CO)NC(=O)[C@@H]1CCCN1C(=O)CNC(=O)CNC(=O)[C@H](C)NC(=O)[C@H](CC(C)C)NC(=O)[C@H](CC(C)C)NC(=O)[C@H](Cc1c[nH]c2ccccc12)NC(=O)[C@H](CC(N)=O)NC(=O)[C@@H](NC(=O)[C@H](Cc1ccccc1)NC(=O)[C@H](CCC(=O)O)NC(=O)C(C)(C)NC(=O)[C@H](C)NC(=O)[C@H](C)NC(=O)[C@H](CCC(N)=O)NC(=O)[C@H](CCCCN)NC(=O)[C@H](CC(=O)O)NC(=O)[C@H](CC(C)C)NC(=O)[C@H](Cc1ccc(O)cc1)NC(=O)[C@@H](NC(=O)[C@H](CO)NC(=O)[C@H](Cc1ccc(O)cc1)NC(=O)[C@H](CC(=O)O)NC(=O)[C@H](CO)NC(=O)[C@@H](NC(=O)[C@H](Cc1ccccc1)NC(=O)[C@@H](NC(=O)CNC(=O)[C@H](CCC(=O)O)NC(=O)CSCC(=O)NCCN1CCC(C)C1=O)[C@@H](C)O)[C@@H](C)O)[C@@H](C)CC)C(C)C)C(N)=O)C(=O)O` (single isomer, unassigned) [Compound 68], the Emax on GLP-1R [1] (Table 3) amounted to 109%; on GLP-1R [1] (Table 3A), 109%; at GIP-R (Table 3), 87%; on GIP-R (Table 3A) it was 87%. Also, the EC50 on GLP-1R [1] (setting [3]) was 0.1 to 1 nM; at GLP-1R [1] (setting [4]), 0.1 to 1 nM; on GIP-R (setting [5]), 0.1 to 1 nM; on GIP-R (setting [6]) it was 0.1 to 1 nM; at GLP-1R [2] (setting [7]) it was above 1000 nM. Further, the AUC score in the experiment on mice (dose range 2-5 nmol/kg) was 2 (AUC score 2 = 26-50%).

`CCCCCCCCCCCCCCCC(=O)N[C@@H](CCC(=O)NCCCC[C@H](NC(=O)[C@H](CO)NC(=O)[C@@H]1CCCN1C(=O)[C@@H]1CCCN1C(=O)[C@@H]1CCCN1C(=O)[C@H](C)NC(=O)CNC(=O)[C@H](CO)NC(=O)[C@H](CO)NC(=O)[C@@H]1CCCN1C(=O)CNC(=O)CNC(=O)[C@H](C)NC(=O)[C@H](CC(C)C)NC(=O)[C@H](CC(C)C)NC(=O)[C@H](Cc1c[nH]c2ccccc12)NC(=O)[C@H](CC(N)=O)NC(=O)[C@@H](NC(=O)[C@H](Cc1ccccc1)NC(=O)[C@H](CCC(=O)O)NC(=O)C(C)(C)NC(=O)[C@H](C)NC(=O)[C@H](C)NC(=O)[C@H](CCC(N)=O)NC(=O)[C@H](CCCCN)NC(=O)[C@H](CC(=O)O)NC(=O)[C@H](CC(C)C)NC(=O)[C@H](Cc1ccc(O)cc1)NC(=O)[C@@H](NC(=O)[C@H](CO)NC(=O)[C@H](Cc1ccc(O)cc1)NC(=O)[C@H](CC(=O)O)NC(=O)[C@H](CO)NC(=O)[C@@H](NC(=O)[C@H](Cc1ccccc1)NC(=O)[C@@H](NC(=O)CNC(=O)[C@H](CCC(=O)O)NC(=O)CCNC(=O)CN1CCOCC1=O)[C@@H](C)O)[C@@H](C)O)[C@@H](C)CC)C(C)C)C(N)=O)C(=O)O` [Compound 233]: the Emax is 96% at GLP-1R [1] (Table 3A) and 77% on GIP-R (Table 3A). For the same molecule, the EC50 at GLP-1R [1] (setting [4]) was below 0.1 nM; on GIP-R (setting [6]), 1 to 10 nM; on GLP-1R [2] (setting [7]), 10 to 1000 nM. In the experiment on mice (dose range 2-5 nmol/kg), the AUC score is given as 2 (AUC score 2 = 26-50%).

Turning to `CCCCCCCCCCCCCCCC(=O)N[C@@H](CCC(=O)NCCCC[C@H](NC(=O)[C@H](CO)NC(=O)[C@@H]1CCCN1C(=O)[C@@H]1CCCN1C(=O)[C@@H]1CCCN1C(=O)[C@H](C)NC(=O)CNC(=O)[C@H](CO)NC(=O)[C@H](CO)NC(=O)[C@@H]1CCCN1C(=O)CNC(=O)CNC(=O)[C@H](C)NC(=O)[C@H](CC(C)C)NC(=O)[C@H](CC(C)C)NC(=O)[C@H](Cc1c[nH]c2ccccc12)NC(=O)[C@H](CC(N)=O)NC(=O)[C@@H](NC(=O)[C@H](Cc1ccccc1)NC(=O)[C@H](CCC(=O)O)NC(=O)C(C)(C)NC(=O)[C@H](C)NC(=O)[C@H](C)NC(=O)[C@H](CCC(N)=O)NC(=O)[C@H](CCCCN)NC(=O)[C@H](CC(=O)O)NC(=O)[C@H](CC(C)C)NC(=O)[C@H](Cc1ccc(O)cc1)NC(=O)[C@@H](NC(=O)[C@H](CO)NC(=O)[C@H](Cc1ccc(O)cc1)NC(=O)[C@H](CC(=O)O)NC(=O)[C@H](CO)NC(=O)[C@@H](NC(=O)[C@H](Cc1ccccc1)NC(=O)[C@@H](NC(=O)CNC(=O)[C@H](CCC(=O)O)NC(=O)CSCC(=O)NCCN1C(=O)C(C)=C(C)C1=O)[C@@H](C)O)[C@@H](C)O)[C@@H](C)CC)C(C)C)C(N)=O)C(=O)O` [Compound 77], the EC50 at GLP-1R [1] (EC50 GLP-1R/nM, Table 3) was 0.1 to 1 nM; at GLP-1R [1] (EC50 GLP-1R/nM, Table 3A) it was 0.1 to 1 nM; on GIP-R (EC50 GIP-R/nM, Table 3), 0.1 to 1 nM; on GIP-R (EC50 GIP-R/nM, Table 3A), 0.1 to 1 nM; on GLP-1R [2], above 1000 nM. Further, the Emax on GLP-1R [1] (Table 3) is 90%; at GLP-1R [1] (Table 3A) it was 90%; on GIP-R (Table 3), 82%; on GIP-R (Table 3A) it was 82%. Moreover, in the experiment with mice (dose range 5.1-15 nmol/kg), the AUC score is on record as 2 (AUC score 2 = 26-50%).
